In ChEMBL document CHEMBL3616448, “N-Hydroxyimides and hydroxypyrimidinones as inhibitors of the DNA repair complex ERCC1-XPF” (Bioorg Med Chem Lett, 2015):
pIC50, pKd: −log10 of the molar value. The source made the active and inactive calls. The calls are words filed in the database; no cut-off is given here.

How the values were obtained:
[1] = molecular target: T1, DNA excision repair protein ERCC-1/DNA repair endonuclease XPF (Homo sapiens, UniProt P07992+Q92889); experiment: Inhibition of ERCC1-XPF (unknown origin) by high-throughput fluorescence based in-vitro endonuclease assay; assay type: protein-complex assay
T1 sequence (P07992 whole entry): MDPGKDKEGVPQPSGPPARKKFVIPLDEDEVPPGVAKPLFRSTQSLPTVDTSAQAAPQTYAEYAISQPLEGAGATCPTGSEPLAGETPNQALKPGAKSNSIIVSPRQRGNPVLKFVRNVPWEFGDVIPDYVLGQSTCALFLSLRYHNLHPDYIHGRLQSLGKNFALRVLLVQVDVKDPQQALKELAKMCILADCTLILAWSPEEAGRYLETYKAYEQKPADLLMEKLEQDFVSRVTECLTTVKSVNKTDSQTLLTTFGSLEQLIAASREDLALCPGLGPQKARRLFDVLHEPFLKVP
T1 sequence (Q92889 whole entry): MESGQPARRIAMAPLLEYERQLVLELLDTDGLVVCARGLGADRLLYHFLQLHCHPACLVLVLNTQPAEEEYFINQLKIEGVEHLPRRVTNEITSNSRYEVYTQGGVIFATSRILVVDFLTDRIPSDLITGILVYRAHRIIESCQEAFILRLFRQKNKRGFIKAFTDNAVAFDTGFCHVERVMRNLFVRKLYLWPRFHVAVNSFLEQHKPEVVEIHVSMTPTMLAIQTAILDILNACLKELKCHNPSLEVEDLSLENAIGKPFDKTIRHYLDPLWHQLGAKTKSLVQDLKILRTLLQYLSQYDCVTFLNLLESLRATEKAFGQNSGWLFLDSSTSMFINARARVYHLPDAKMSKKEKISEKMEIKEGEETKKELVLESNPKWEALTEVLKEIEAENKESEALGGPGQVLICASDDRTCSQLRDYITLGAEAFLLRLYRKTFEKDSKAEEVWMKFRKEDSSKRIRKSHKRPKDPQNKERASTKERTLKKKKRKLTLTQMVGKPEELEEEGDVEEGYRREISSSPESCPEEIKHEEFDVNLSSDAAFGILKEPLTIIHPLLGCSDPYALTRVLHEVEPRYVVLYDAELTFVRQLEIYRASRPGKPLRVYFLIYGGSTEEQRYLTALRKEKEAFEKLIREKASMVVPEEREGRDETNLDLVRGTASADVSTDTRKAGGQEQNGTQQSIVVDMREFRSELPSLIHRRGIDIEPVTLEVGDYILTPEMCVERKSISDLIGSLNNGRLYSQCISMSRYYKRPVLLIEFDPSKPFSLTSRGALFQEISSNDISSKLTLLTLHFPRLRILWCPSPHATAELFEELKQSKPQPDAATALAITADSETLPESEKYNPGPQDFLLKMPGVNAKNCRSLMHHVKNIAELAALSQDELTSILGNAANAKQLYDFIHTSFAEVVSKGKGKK

Flap endonuclease 1 = Flap endonuclease 1 (Homo sapiens, UniProt P39748); experiment: Inhibition of FEN1 (unknown origin)
Deoxyribonuclease-1 = molecular target: T2, Deoxyribonuclease-1 (Homo sapiens, UniProt P24855); experiment: Inhibition of DNAse1 (unknown origin)
T2 sequence (P24855 whole entry): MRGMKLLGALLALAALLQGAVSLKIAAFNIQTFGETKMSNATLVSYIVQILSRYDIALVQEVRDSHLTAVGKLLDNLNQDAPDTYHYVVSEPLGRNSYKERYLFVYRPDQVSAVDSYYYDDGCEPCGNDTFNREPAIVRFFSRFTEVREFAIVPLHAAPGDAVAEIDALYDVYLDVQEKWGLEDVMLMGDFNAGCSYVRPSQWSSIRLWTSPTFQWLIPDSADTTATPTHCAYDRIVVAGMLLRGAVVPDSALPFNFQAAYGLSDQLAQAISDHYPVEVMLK

[2] = molecular target: T1, DNA excision repair protein ERCC-1/DNA repair endonuclease XPF; experiment: Binding affinity to ERCC1-XPF (unknown origin) by SPR assay; assay type: protein-complex assay
[3] = Lipophilicity, log D of the compound; assay type: physicochemical; settings: octanol/water
[4] = Apparent permeability by PAMPA method; assay type: physicochemical
HepG2 = experiment: Cytotoxicity against human HepG2 cells; assay type: cell-based
[5] = molecular target: T3, DNA excision repair protein ERCC-1/DNA repair endonuclease XPF (Homo sapiens) (UniProt P07992+Q92889); experiment: Binding affinity to ERCC1-XPF (unknown origin) assessed as melting temperature by thermal shift assay; assay type: protein-complex assay
[6] = Half life in mouse liver microsomes; assay type: ADME
[7] = molecular target: T3, DNA excision repair protein ERCC-1/DNA repair endonuclease XPF (Homo sapiens); experiment: Inhibition of ERCC1-XPF in human A375 cells assessed as potentiation of cisplatin-induced cytotoxicity at 0.1 to 3 uM incubated for 5 days; assay type: cell-based; settings: A-375
[8] = Half life in human liver microsomes; assay type: ADME
[9] = molecular target: T3, DNA excision repair protein ERCC-1/DNA repair endonuclease XPF (Homo sapiens); experiment: Inhibition of ERCC1-XPF in human A375 cells assessed as induction of delay in DNA repair by measuring cumulative frequency of cells up to 10 uM pre-incubated for 1 hr before cisplatin exposure for 1 hr by immunohistochemistry based gammaH2AX foci assay; assay type: cell-based; settings: A-375
[10] = molecular target: T3, DNA excision repair protein ERCC-1/DNA repair endonuclease XPF (Homo sapiens); experiment: Inhibition of ERCC1-XPF in human A375 cells assessed as reduction in direct nucleotide excision repair of UV-damaged pEGFP plasmid up to 10 uM incubated for 24 hrs by recombinant GFP reporter assay; assay type: cell-based; settings: A-375
A-375 = experiment: Cytotoxicity against human A375 cells assessed as reduction in cell number at 0.1 to 3 uM incubated for 5 days; assay type: cell-based; settings: a-375, 120 h

Chain of Flap endonuclease 1 (P39748 whole entry): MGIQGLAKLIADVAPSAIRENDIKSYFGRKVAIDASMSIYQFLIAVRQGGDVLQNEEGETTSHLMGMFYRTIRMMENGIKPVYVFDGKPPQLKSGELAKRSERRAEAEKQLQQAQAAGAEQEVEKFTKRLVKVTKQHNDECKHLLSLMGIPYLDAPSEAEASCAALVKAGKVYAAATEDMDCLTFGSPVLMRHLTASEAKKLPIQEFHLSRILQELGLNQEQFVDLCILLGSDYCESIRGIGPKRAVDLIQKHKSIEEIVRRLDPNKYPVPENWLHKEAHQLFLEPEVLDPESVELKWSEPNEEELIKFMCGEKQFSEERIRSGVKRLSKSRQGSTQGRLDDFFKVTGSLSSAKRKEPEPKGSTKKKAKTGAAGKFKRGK

SMILES: O=C1c2cccc3c(Cl)ccc(c23)C(=O)N1O
- pIC50 [1]: 4.92
- pIC50 (Flap endonuclease 1): 6.15

SMILES: O=c1c2ccsc2n(Cc2ccccc2)c(=O)n1O
- pIC50 [1]: 4.09
- pIC50 (Flap endonuclease 1): 6.17
- pIC50 (Deoxyribonuclease-1): < 4.00

SMILES: CCCNC(=O)c1nc(-c2cccs2)[nH]c(=O)c1O
- pIC50 [1]: 5.57
- pIC50 (Flap endonuclease 1): 5.38
- pIC50 (Deoxyribonuclease-1): < 4.00

SMILES: Cn1c(-c2cccs2)nc(C(=O)O)c(O)c1=O
- pIC50 [1]: 4.31
- pIC50 (Flap endonuclease 1): 4.05
- pIC50 (Deoxyribonuclease-1): < 4.00

SMILES: CNC(=O)c1nc(-c2cccs2)[nH]c(=O)c1O
- pKd [2]: 5.40
- logD [3]: 0.5
- Papp [4]: 3.1 ×10⁻⁶ cm/s
- Activity (HepG2): > 10 µM
- ΔTm [5]: 4 °C
- pIC50 [1]: 6.22
- pIC50 (Flap endonuclease 1): 4.92
- half-life [6]: > 6.67 h
- inhibition [7]: inactive
- half-life [8]: 3.02 h
- inhibition [9]: inactive
- pIC50 (Deoxyribonuclease-1): 4.17
- inhibition [10]: inactive
- Activity (A-375): Non-toxic

SMILES: O=C(NCCO)c1nc(-c2cccs2)[nH]c(=O)c1O
- pIC50 [1]: 6.15
- pIC50 (Flap endonuclease 1): 5.40
- pIC50 (Deoxyribonuclease-1): < 4.00

SMILES: O=c1[nH]c2cc(Nc3ccccc3)ccc2c(=O)n1O
- pIC50 [1]: 5.41
- pIC50 (Flap endonuclease 1): 6.64
- pIC50 (Deoxyribonuclease-1): 4.52

SMILES: O=c1cc(-c2ccccc2)[nH]c(=O)n1O
- pIC50 [1]: 5.82
- pIC50 (Flap endonuclease 1): 6.20
- pIC50 (Deoxyribonuclease-1): < 4.00

SMILES: O=C1c2cccc3cccc(c23)C(=O)N1O
- pIC50 [1]: 4.52
- pIC50 (Flap endonuclease 1): 6.52

SMILES: Cn1c(=O)n(O)c(=O)c2ccccc21
- pIC50 [1]: 4.02
- pIC50 (Flap endonuclease 1): 5.68
- pIC50 (Deoxyribonuclease-1): < 4.00

SMILES: O=C(O)c1nc(-c2ccccc2)nc(O)c1O
- pIC50 [1]: 5.41
- pIC50 (Flap endonuclease 1): 4.79
- pIC50 (Deoxyribonuclease-1): < 4.00

SMILES: Cc1ccc(-c2coc3c(=O)n(O)c(=O)[nH]c23)cc1
- pIC50 [1]: 5.82
- pIC50 (Flap endonuclease 1): 7.24
- pIC50 (Deoxyribonuclease-1): < 4.00

SMILES: COC(=O)c1nc(-c2ccccc2)[nH]c(=O)c1O
- pIC50 [1]: 4.79
- pIC50 (Flap endonuclease 1): 4.27
- pIC50 (Deoxyribonuclease-1): < 4.00

SMILES: CC(C)CCNC(=O)c1nc(-c2cccs2)[nH]c(=O)c1O
- pIC50 [1]: 6.30
- pIC50 (Flap endonuclease 1): 5.46

SMILES: O=c1[nH]c2sccc2c(=O)n1O
- pIC50 [1]: 5.41
- pIC50 (Flap endonuclease 1): 8.05
- pIC50 (Deoxyribonuclease-1): < 4.00

SMILES: CC(=O)Nc1ccc2[nH]c(=O)n(O)c(=O)c2c1
- pIC50 [1]: 5.18
- pIC50 (Flap endonuclease 1): 5.70
- pIC50 (Deoxyribonuclease-1): 4.06

SMILES: CCC(C)NC(=O)c1nc(-c2cccs2)[nH]c(=O)c1O (configuration not stated)
- logD [3]: 2.1
- Papp [4]: 9.7 ×10⁻⁶ cm/s
- Activity (HepG2): > 10 µM
- pIC50 [1]: 6.22
- pIC50 (Flap endonuclease 1): 5.89
- half-life [6]: > 6.67 h
- half-life [8]: > 6.67 h
- pIC50 (Deoxyribonuclease-1): < 4.00

SMILES: CC(C)CCNC(=O)c1nc(-c2ccc(CN3CCOCC3)cc2)[nH]c(=O)c1O
- pIC50 [1]: 6.10
- pIC50 (Flap endonuclease 1): 4.42

SMILES: O=C(Nc1ccc(F)cc1)c1nc(-c2cccs2)[nH]c(=O)c1O
- pIC50 [1]: 6.10
- pIC50 (Flap endonuclease 1): 4.98

SMILES: COC(=O)c1nc(-c2cccs2)nc(O)c1O
- pIC50 [1]: 4.56
- pIC50 (Flap endonuclease 1): 5.00
- pIC50 (Deoxyribonuclease-1): < 4.00

SMILES: O=C(O)c1nc(-c2cccs2)nc(O)c1O
- pIC50 [1]: 5.54
- pIC50 (Flap endonuclease 1): 4.98
- pIC50 (Deoxyribonuclease-1): < 4.00

SMILES: CC(C)CCNC(=O)c1nc(C2CCCN(C)C2)[nH]c(=O)c1O (configuration not stated)
- pIC50 [1]: 4.60
- pIC50 (Flap endonuclease 1): < 4.00

SMILES: CC(=O)NCCNC(=O)c1nc(-c2cccs2)[nH]c(=O)c1O
- pIC50 [1]: 6.10
- pIC50 (Flap endonuclease 1): 5.30
- pIC50 (Deoxyribonuclease-1): 4.20

SMILES: O=c1[nH]c2cc(N3CCCC3)ccc2c(=O)n1O
- pIC50 [1]: 5.04
- pIC50 (Flap endonuclease 1): 5.96
- pIC50 (Deoxyribonuclease-1): 4.55

SMILES: O=c1[nH]c2c(-c3ccccc3)csc2c(=O)n1O
- pIC50 [1]: 5.74
- pIC50 (Flap endonuclease 1): 8.52
- pIC50 (Deoxyribonuclease-1): < 4.00

SMILES: CC(C)CCNC(=O)c1nc(C2CCCCN2)[nH]c(=O)c1O (configuration not stated)
- pIC50 [1]: 5.20
- pIC50 (Flap endonuclease 1): < 4.00

SMILES: CC(C)CCNC(=O)c1nc(-c2ccc(CN(C)C)cc2)[nH]c(=O)c1O
- pIC50 [1]: 5.77
- pIC50 (Flap endonuclease 1): 4.15

SMILES: O=C(Nc1cccnc1)c1nc(-c2cccs2)[nH]c(=O)c1O
- pIC50 [1]: 6.15
- pIC50 (Flap endonuclease 1): 5.07
- pIC50 (Deoxyribonuclease-1): < 4.00

SMILES: NC(=O)c1nc(-c2cccs2)nc(O)c1O
- logD [3]: -0.4
- Papp [4]: 0.7 ×10⁻⁶ cm/s
- Activity (HepG2): > 10 µM
- pIC50 [1]: 6.00
- pIC50 (Flap endonuclease 1): 4.63
- half-life [6]: 2.5 h
- half-life [8]: 2.32 h
- pIC50 (Deoxyribonuclease-1): < 4.00

SMILES: O=C(c1nc(-c2cccs2)[nH]c(=O)c1O)N1CCCC1
- pIC50 [1]: 5.34
- pIC50 (Flap endonuclease 1): 4.86

SMILES: O=c1[nH]c2ccccc2c(=O)n1O
- pIC50 [1]: 4.74
- pIC50 (Flap endonuclease 1): 6.52
- pIC50 (Deoxyribonuclease-1): < 4.00

SMILES: CC(=O)Nc1ccc2c(=O)n(O)c(=O)[nH]c2c1
- pIC50 [1]: 5.19
- pIC50 (Flap endonuclease 1): 5.68
- pIC50 (Deoxyribonuclease-1): < 4.00

SMILES: CC(=O)Nc1cccc2c(=O)n(O)c(=O)[nH]c12
- pIC50 [1]: 5.21
- pIC50 (Flap endonuclease 1): 7.42
- pIC50 (Deoxyribonuclease-1): < 4.00

SMILES: O=C(NCc1ccc(F)cc1)c1nc(-c2cccs2)nc(O)c1O
- pIC50 [1]: 5.38
- pIC50 (Flap endonuclease 1): 5.68
- pIC50 (Deoxyribonuclease-1): < 4.00

SMILES: O=C(NCCN1CCOCC1)c1nc(-c2cccs2)[nH]c(=O)c1O
- pIC50 [1]: 6.00
- pIC50 (Flap endonuclease 1): 5.39
- pIC50 (Deoxyribonuclease-1): 4.23

SMILES: COc1nc(-c2cccs2)nc(C(=O)O)c1O
- pIC50 [1]: < 4.00

SMILES: CC(C)CCNC(=O)c1nc(C2CCCCN2C)[nH]c(=O)c1O (configuration not stated)
- pIC50 [1]: 5.08
- pIC50 (Flap endonuclease 1): < 4.00

SMILES: CC(C)CCNC(=O)c1nc(C2CCN(C)CC2)[nH]c(=O)c1O
- pIC50 [1]: 5.16
- pIC50 (Flap endonuclease 1): < 4.00
